# Data from patent publication US8030358B2, “Methods and pharmaceutical compositions for decorporation of radioactive compounds” (priority 2007, dated 2011).
# Assays:
# [1] = Bioavailability study (oral C2E5 vs intravenous DTPA); assay type: in vivo, rat
# Procedure: A bioavailability study was conducted in which five rats were intravenously administered 5 mg of DTPA and another 5 rats were orally administered an equivalent […] dose (approximately 7 mg) of C2E5 in a 10% ethanol solution. Blood samples were obtained at regular intervals from an in-dwelling catheter that had been surgically implanted prior to the administration of the doses.
# [2] = Small Animal Decorporation Efficacy Study; assay type: in vivo; conditions: rats; oral C2E5 compared with IV administration of equivalent doses of DTPA
structure (smiles),measurement,setting,value
"CCOC(=O)CN(CCN(CC(=O)OCC)CC(=O)OCC)CCN(CC(=O)OCC)CC(=O)OCC [C2E5, DTPA Pentaethyl Ester]",bioavailability,"[1]; rat model, oral, approximately 7 mg C2E5 in a 10% ethanol solution, compared with 5 mg DTPA intravenously",~100%
same,C2E5 detected in the plasma,"[1]; rat, after oral C2E5 in a 10% ethanol solution",no C2E5 can be detected in the plasma
same,conversion to DTPA after absorption from the gastrointestinal tract,"[1]; rat, oral C2E5",quantitatively and rapidly converted to DTPA
same,blood concentration profile compared to IV DTPA,"[1]; rat, oral C2E5 vs 5 mg DTPA intravenously",lower blood levels and a longer duration compared to IV DTPA
same,decorporation of ^241Am,[2],compared favorably
